Activity calls are given as the source filed them. No cut-off for these calls is given here.

The values below come from ChEMBL document CHEMBL4732091, “Design, synthesis and biological evaluation of novel thiosemicarbazone-indole derivatives targeting prostate cancer cells” (Eur J Med Chem, 2021).

Data set [1] concerns PC-3. Nature of the data set: Induction of apoptosis in human PC-3 cells assessed as early apoptotic cells at 100 nM measured after 72 hrs by Annexin V-FITC/propidium iodide staining based flow cytometry method (reference value: 0.452 %). It counts as functional.
Data set [2] concerns DU-145. Nature of the data set: Induction of ROS generation in human DU-145 cells assessed as intracellular ROS level at 1.5 uM measured after 48 hrs by DCFH-DA staining based flowcytometry method (reference value: 52 %). It counts as functional.
The test system of data set [3] is PC-3. As to the kind of experiment: Antitumour activity against human PC-3 cells xenografted in BALB/c-NU mouse assessed as reduction in tumour growth at 12.5 mg/kg, IG qd measured after 21 days relative to control. It counts as functional. On the set-up: scale not given: the % may be the effect or the level left. Conditions: time 21 day. (Xenograft models place foreign cells or tissue in a host animal.)

In data set [4] the test system is DU-145. As to the kind of experiment: Induction of apoptosis in human DU-145 cells assessed as necrotic cells at 1 uM measured after 72 hrs by Annexin V-FITC/propidium iodide staining based flow cytometry method (reference value: 1.13 %). It counts as functional. On the technique in general: Flow cytometry measures light scatter and fluorescence of single cells or particles in a stream.

The test system of data set [5] is PC-3. Nature of the data set: Induction of apoptosis in human PC-3 cells assessed as necrotic cells at 50 nM measured after 72 hrs by Annexin V-FITC/propidium iodide staining based flow cytometry method (reference value: 1.2 %). It counts as functional.
Data set [6] concerns PC-3. Nature of the data set: Antitumour activity against human PC-3 cells xenografted in BALB/c-NU mouse assessed as reduction in tumour growth at 25 mg/kg, IG qd measured after 21 days relative to control. It counts as functional. Details: scale not given: the % may be the effect or the level left. Conditions: time 21 day.
The test system of data set [7] is DU-145. Nature of the data set: Induction of ROS generation in human DU-145 cells assessed as intracellular ROS level at 3 uM measured after 48 hrs by DCFH-DA staining based flowcytometry method (reference value: 52 %). It counts as functional.
The subject of data set [8] is DU-145. As to the kind of experiment: Induction of apoptosis in human DU-145 cells assessed as necrotic cells at 2 uM measured after 72 hrs by Annexin V-FITC/propidium iodide staining based flow cytometry method (reference value: 1.13 %). It counts as functional.
The subject of data set [9] is PC-3. Nature of the data set: Antiproliferative activity against human PC-3 cells assessed as inhibition of cell proliferation measured after 24 to 72 hrs by MTT assay. It counts as functional, cell-based. Conditions: dose 0.156-20 µM, time 24-72 hrs.
Data set [10] has as its system DU-145. As to the kind of experiment: Induction of apoptosis in human DU-145 cells assessed as necrotic cells at 0.5 uM measured after 72 hrs by Annexin V-FITC/propidium iodide staining based flow cytometry method (reference value: 1.13 %). It counts as functional.
In data set [11] the test system is DU-145. As to the kind of experiment: Induction of apoptosis in human DU-145 cells assessed as viable cells at 1 uM measured after 72 hrs by Annexin V-FITC/propidium iodide staining based flow cytometry method (reference value: 96.3 %). It counts as functional. Conditions: read-out: Activity.
The test system of data set [12] is PC-3. As to the kind of experiment: Induction of ROS generation in human PC-3 cells assessed as increase in intracellular ROS level at 250 nM pretreated with NAC followed by compound treatment measured after 48 hrs by DCFH-DA staining based flowcytometry method. It counts as functional, cell-based.
Data set [13] has as its system PC-3. Nature of the data set: Induction of apoptosis in human PC-3 cells assessed as necrotic cells at 25 nM measured after 72 hrs by Annexin V-FITC/propidium iodide staining based flow cytometry method (reference value: 1.2 %). It counts as functional.
In data set [14] the test system is PC-3. As to the kind of experiment: Induction of apoptosis in human PC-3 cells assessed as late apoptotic cells at 100 nM measured after 72 hrs by Annexin V-FITC/propidium iodide staining based flow cytometry method (reference value: 1.01 %). It counts as functional.
Data set [15] has as its system PC-3. As to the kind of experiment: Activation of MAPK signaling in human PC-3 cells assessed as increase in phosphorylated ERK 1/2 (Thr 202/Tyr 204) at 125 to 500 nM measured by Western blot assay. It counts as cell-based. The note with it: filed as activator, dose 125-500 nM. For orientation: Immunoblotting shows a protein as a band on a membrane.
In data set [16] the test system is DU-145. Nature of the data set: Induction of apoptosis in human DU-145 cells assessed as early apoptotic cells at 2 uM measured after 72 hrs by Annexin V-FITC/propidium iodide staining based flow cytometry method (reference value: 0.835 %). It counts as functional.
The test system of data set [17] is PC-3. Nature of the data set: Activation of MAPK signaling in human PC-3 cells assessed as increase in phosphorylated JNK (Thr 183/Tyr 185) at 125 to 500 nM measured by Western blot assay. Conditions: filed as activator, dose 125-500 nM. It counts as cell-based.
A short description of data set [18]: Toxicity in C57BL/6 mouse assessed as change in body weight at 2 mg/kg, IG measured after 2 weeks. It counts as organism-based. The note with it: in vivo, po, 336 h.

`Cc1ccc(/C=N/NC(=S)Nc2ccc(C(=O)NCCc3c(C)[nH]c4ccccc34)cc2)nc1`: the Activity in data set [1] is recorded as 5.76%; in [2] it was 71.3%; in [3], 53.6%; in data set [4] it was 4.81%; in data set [5], 8.91%; in [6], 43.4%. Further, the Activity in data set [7] came out at 75.1%; in [8] it was 7.23%; in data set [10], 1.95%; in data set [13] it was 2.06%; in data set [14], 56.2%; in data set [16] it was 10.5%. For the same compound, the Activity result in data set [18] is reported as “Non-Toxic”. Also, the inhibition result in [9] was “Dose-dependent effect”. Also, the viability at 1 µM in data set [11] turned out to be 62.1%. The result in data set [12] was inactive. Besides, the outcome in [15] and in [17] was Active.
